23 compounds from patent US8044198B2, “Sirtuin modulating compounds” (Sirtris Pharmaceuticals, Inc., priority 2005, dated 2011) can be followed below.

Test [1] concerns the target T1, SIRT1 (Homo sapiens, UniProt Q96EB6).
T1 sequence (Q96EB6 1-747): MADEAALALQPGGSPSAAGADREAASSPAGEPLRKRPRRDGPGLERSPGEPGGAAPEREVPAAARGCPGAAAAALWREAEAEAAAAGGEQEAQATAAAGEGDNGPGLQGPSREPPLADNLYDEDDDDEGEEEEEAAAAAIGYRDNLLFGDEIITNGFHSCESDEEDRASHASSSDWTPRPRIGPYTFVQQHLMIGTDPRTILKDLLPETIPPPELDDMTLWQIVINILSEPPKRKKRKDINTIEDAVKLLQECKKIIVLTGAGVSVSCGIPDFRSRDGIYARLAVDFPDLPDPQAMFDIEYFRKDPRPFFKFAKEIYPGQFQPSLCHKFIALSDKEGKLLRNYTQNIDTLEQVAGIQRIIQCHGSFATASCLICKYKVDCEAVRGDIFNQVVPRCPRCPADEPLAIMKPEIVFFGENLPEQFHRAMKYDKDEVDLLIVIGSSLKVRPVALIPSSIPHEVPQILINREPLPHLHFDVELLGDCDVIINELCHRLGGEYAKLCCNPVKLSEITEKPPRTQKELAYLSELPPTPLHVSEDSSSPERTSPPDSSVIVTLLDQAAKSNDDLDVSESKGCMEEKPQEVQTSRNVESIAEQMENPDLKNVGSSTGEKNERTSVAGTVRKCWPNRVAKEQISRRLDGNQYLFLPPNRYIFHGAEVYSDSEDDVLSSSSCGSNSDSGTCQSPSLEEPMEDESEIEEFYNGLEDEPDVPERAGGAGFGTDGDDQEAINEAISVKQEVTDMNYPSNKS
The test is described as follows: SIRT1 mass spectrometry (MS) based deacetylation assay. It counts as biochemical. Particulars: for EC50: SIRT1 activation, mass spectrometry assay, read-out: ED50 MS ASSAY; for FOLD ACT. MS: fold activation of SIRT1 as determined by MS.

For test [2], the target named is T1, SIRT1. The test can be described thus: SIRT1 fluorescence polarization (FP) deacetylation assay with p53-based peptide substrates. It is filed as biochemical. Particulars: for EC50: SIRT1 activation, read-out: ED50 FP ASSAY; for IC50: Sirt1 Inhibitors. The protocol: A fluorescence polarization or mass spectrometry based assay was used to identify modulators of SIRT1 activity. The same assay may be used to identify modulators of any sirtuin protein. The fluorescence polarization assays utilizes one of two different peptides based on a fragment of p53, a known sirtuin deacetylation target. Compounds 1-18 were tested using a substrate containing peptide 1 having 14 amino acid residues as follows: […](Ac)NleSTEG (SEQ ID NO: 1) wherein K(Ac) is an acetylated lysine residue and Nle is a norleucine. The peptide is labeled with the fluorophore MR121 (excitation 635 nm/emission 680 nm) at the C-terminus and biotin at the N-terminus. The sequence of the peptide substrate is based on p53 with several modifications. In particular, all arginine and leucine residues other than the acetylated lysine have replaced with serine so that the peptide is not susceptible to trypsin cleavage in the absence of deacetylation. In addition, the methionine residue naturally present in the sequence has been replaced with the norleucine because the methionine may be susceptible to oxidation during synthesis and purification. […] This peptide is labeled with the fluorophore MR121 (excitation 635 nm/emission 680 nm) at the C-termini and biotin at the N-termini. The sequence of the peptide substrates are based on p53 with several modifications. In particular, all arginine and leucine residues other than the acetylated lysine residues have replaced with serine so that the peptides are not susceptible to trypsin cleavage in the absence of deacetylation. In addition, the methionine residues naturally present in the sequences have been replaced with the norleucine because the methionine may be susceptible to oxidation during synthesis and purification. […] The peptide is labeled with the fluorophore 5TMR (excitation 540 nm/emission 580 nm) at the C-terminus. The sequence of the peptide substrate is also based on p53 with several modifications. In addition, the methionine residue naturally present in the sequence was replaced with the norleucine because the methionine may be susceptible to oxidation during synthesis and purification.
The peptide substrates were exposed to a sirtuin protein in the presence of NAD^+ to allow deacetylation of the substrate and render it sensitive to cleavage by trypsin. Trypsin was then added and the reaction was carried to completion (i.e., the deacetylated substrate is cleaved) releasing the MR121 or 5TMR fragment. Streptavidin is then added to the reaction where it can bind both the uncleaved substrate (i.e., any remaining acetylated substrate) and the non-fluorescent portion of the cleaved peptide substrate (i.e., the biotin containing fragment). The fluorescence polarization signal observed for the full length peptide substrates bound to streptavidin was higher than the fluorescence polarization signal observed for the released MR121 or 5TMR C-terminal fragment. In this way, the fluorescence polarization obtained is inversely proportional to the level of deacetylation (e.g., the signal is inversely proportional to the activity of the sirtuin protein). Results were read on a microplate fluorescence polarization reader (Molecular Devices Spectramax MD) with appropriate excitation and emission filters.
The fluorescence polarization assays using peptide 1 was conducted as follows: 0.5 μM peptide substrate and 150 μM βNAD^+ is incubated with 0.1 μg/mL of SIRT1 for 60 minutes at 37° C. in a reaction buffer (25 mM Tris-acetate pH8, 137 mM Na—Ac, 2.7 mM K—Ac, 1 mM Mg—Ac, 0.05% Tween-20, 0.1% Pluronic F127, 10 mM CaCl2, 5 mM DTT, 0.025% BSA, 0.15 mM Nicotinamide). Test compounds 1-18 were solubilized in DMSO and added to the reaction at 11 concentrations ranging from 0.7 μM to 100 μM. […]

Another test deals with NCI-H358 cells. The test is described as follows: Cellular ATP Assay (ATPLite 1Step normalized to AlamarBlue viability). It is filed as cell-based. Particulars: Homo sapiens; for EC50: compounds that raised intracellular ATP levels, read-out: ED50 ATP ASSAY. The protocol:
Cellular ATP levels are an indirect measurement of cellular metabolic rates and, by extension, mitochondrial function. […] The ATP assay is combined with a cellular viability assay so that cellular ATP levels can be normalized to viable cells. Cellular ATP levels were measured using the ATPLite 1Step Kit (PerkinElmer) and cellular viability was measured using the cell permeable dye, AlamarBlue™.
The Cellular ATP Assay is a multiplexed assay that measures both ATP levels and viability of a given cell sample. This assay is run in a 96-well Assay Plate and data are reported as the [ATP]/viability for each well in the Assay Plate.
The ATPLite 1 Step™ Kit is a single-step luminescent cell-based assay for detection of ATP. The kit contains lyophilized substrate mixture, comprised of D-luciferin and the firefly (Photinus pyralis) enzyme luciferase. Additionally, the kit contains a detergent-based reconstitution buffer that induces the lysis of cellular membranes. The luciferase in the assay mixture catalyzes a reaction between the free cellular ATP and D-luciferin to produce bioluminescence according to the schematic reaction outlined below. The amount of light produced is proportional to the cellular ATP concentration.
The AlamarBlue™ Assay is a single-step assay that utilizes a soluble, non-toxic, cell permeable dye that is added to cell growth media. This dye undergoes electron reduction in viable cells but not dead cells. The reduced dye product gives a fluorescent signal which can be monitored with a fluorescence plate reader (excitation 545 nm and emission 575 nm). The amount of fluorescence generated in a given well is proportional to the number of viable cells. The viability signal generated by this assay is used to normalize the ATP signal from the ATPLite 1Step™ assay results.
The material was dissolved in 100% vehicle (DMSO) to yield a final concentration of 10 mM (stock solution). The stock solution was serially diluted with 100% DMSO as described in SOP 7.10.
In this assay NCI-H358 cells (obtained from the American Tissue Culture Collection, ATCC) were seeded in 96 well microplates (10^4 cells/well). The NCI-H358 Growth Culture Media consists of RPMI 1640 Media supplemented with 10% FBS, […] streptomycin, and 100 units/mL penicillin. […] After 48 hours of compound treatment under cell growth conditions, plates were removed from incubator, and 15 μl of AlamarBlue™ dye was added to each well. Cell microplates were incubated with dye for 2 hours under growth conditions, and fluorescence was subsequently measured using a plate reader. Media containing AlamarBlue™ was removed, and plates were washed in 100 μl of PBS per well. This wash was removed, and 200 μl of 1×ATPLite 1Step reagent was added to each well. Luminescence was then measured using a plate reader. The ATP signal for each well, measured by the luminescence scan, was normalized to its corresponding cell viability value, measured by the fluorescence scan, to generate the average ATP level per viable cell unit (ATP/vCell). The ATP/vCell for each treatment was then normalized to the average vehicle ATP/vCell for its respective cell microplate, yielding the normalized ATP/vCell (norm. ATP/vCell). Finally, the norm. ATP/vCell for each unique treatment was averaged across plate replicates, generating the average norm. ATP/vCell.
Each of these ATP levels was normalized to the cell viability in the corresponding treatment well, generating the ATP/vCell value. Each ATP/vCell value was subsequently normalized to its average Vehicle ATP/vCell values for its respective cell microplate.
Data are represented as the normalized ATP/vCell (arbitrary units). […] These values represent an average of three plate replicates.
A number of compounds were screened for their affect on ATP levels in the assay as described in Example 5. […] NA means that the compound was not tested using the indicated assay.

Each structure is given as a SMILES string. Some results are limits rather than exact numbers.

With `COc1cccc(OC)c1C(=O)Nc1ccc(-c2nc3ncccc3o2)cc1` [Compound 27], the EC50 at SIRT1 [1] and at SIRT1 [2] was more than 150 µM each time.

On to `N#Cc1cccc(C(=O)Nc2ccc(-c3nc4ncccc4o3)cc2)c1` [Compound 25], for which the IC50 at SIRT1 [2] lay in the range of 51 to 100 µM.

On to `N#Cc1ccc(C(=O)Nc2ccc(-c3nc4ncccc4o3)cc2)cc1` [Compound 26], for which, at SIRT1 [2], the IC50 is 51 to 100 µM.

Consider `COc1ccc(C(=O)Nc2ccc(-c3nc4ncccc4o3)cc2)c(OC)c1OC` [Compound 34], for which the EC50 at SIRT1 [1] and at SIRT1 [2] was more than 150 µM each time.

With `COc1ccc(C(=O)Nc2cccc(-c3nc4ncccc4o3)c2)c(OC)c1` [Compound 55], the EC50 on SIRT1 [1] and at SIRT1 [2] was 5 to 50 µM each time. For the same compound, the “FOLD ACT. MS” value at SIRT1 [1] is on record as “B (B (Fold Activation <250%))”.

`O=C(Nc1ccc(-c2nc3ncccc3o2)cc1)c1ccc(N2CCCCC2)cc1` [Compound 21]: the EC50 at SIRT1 [1] and on SIRT1 [2] was more than 150 µM each time.

Turning to `O=C(Nc1ccc(-c2nc3ncccc3o2)cc1)c1ccc(N2CCCC2)cc1` [Compound 29], the EC50 on SIRT1 [1] and on SIRT1 [2] was more than 150 µM in each case.

Consider `COc1ccc(C(=O)Nc2ccc(-c3nc4ncccc4o3)cc2)cc1OC` [Compound 33], for which the EC50 on SIRT1 [1] and at SIRT1 [2] was more than 150 µM in each case.

With `COc1ccc(C(=O)Nc2ccc(-c3nc4ncccc4o3)cc2)cc1` [Compound 35], the EC50 at SIRT1 [1] and at SIRT1 [2] was more than 150 µM each time.

As for `COc1ccc(C(=O)Nc2ccc(-c3nc4ncccc4o3)cc2)cc1C(F)(F)F` [Compound 22], the EC50 at SIRT1 [1] and at SIRT1 [2] was more than 150 µM in each case.

`Cc1ccc(C)n1-c1cccc(C(=O)Nc2ccc(-c3nc4ncccc4o3)cc2)c1` [Compound 19]: the EC50 at SIRT1 [1] and at SIRT1 [2] was more than 150 µM in each case.

For `CN(C)c1ccc(C(=O)Nc2cccc(-c3nc4ncccc4o3)c2)cc1` [Compound 43], on SIRT1 [1], the EC50 was in the range of 5 to 50 µM and the “FOLD ACT. MS” value is “B (B (Fold Activation <250%))”. The EC50 at SIRT1 [2] fell in the range of 5 to 50 µM.

On SIRT1 [2], `COc1ccc(C(=O)Nc2ccc(-c3nc4ncccc4o3)cc2)cc1Cl` [Compound 30] returned an IC50 of more than 150 µM.

Consider `O=C(Nc1ccc(-c2nc3ncccc3o2)cc1)c1cccc(OC(F)(F)F)c1` [Compound 32], for which the EC50 on SIRT1 [1] and at SIRT1 [2] was more than 150 µM each time.

With `Cc1cc(SCc2sc(-c3ccc(C(F)(F)F)cc3)nc2C)ccc1OCC(=O)O` [Compound 291], on SIRT1 [2], the IC50 fell in the range of 51 to 100 µM.

In the case of `O=C(Nc1cccc(-c2nc3ccncc3s2)c1)Nc1ccc2c(c1)OCO2` [Compound 99], on SIRT1 [1], the EC50 was less than 5 µM and the “FOLD ACT. MS” value is “A (A (Fold activation >250%))”. Further, the EC50 with NCI-H358 cells was less than 50 µM.

Turning to `Cc1nc(-c2cccc(NC(=O)c3cccc(N(C)C)c3)c2)cs1` [Compound 79], the values for the EC50 on SIRT1 [1] and with NCI-H358 cells were more than 150 µM and less than 50 µM, respectively.

For `Cc1nc(-c2cccc(Nc3nc4ccccc4o3)c2)cs1` [Compound 92], at SIRT1 [1], the EC50 was in the range of 5 to 50 µM and the “FOLD ACT. MS” value was “B (B (Fold Activation <250%))”. The compound further displayed an IC50 with NCI-H358 cells (compounds that lowered intracellular ATP levels) of 51 to 100 µM.

On to `CN(C)c1cccc(C(=O)Nc2ccc(-c3nc4ncccc4o3)cc2)c1` [Compound 23], for which the IC50 against SIRT1 [2] was more than 150 µM.

Consider `c1cc(Nc2nc3ccccc3o2)nc(-c2nc3ncccc3o2)c1` [Compound 105], for which, on SIRT1 [1], the EC50 is less than 5 µM and the “FOLD ACT. MS” value is on record as “B (B (Fold Activation <250%))”. Moreover, the EC50 in the test on NCI-H358 cells was less than 50 µM.

Take `O=C(Nc1ccc(-c2nc3ncccc3o2)cc1)c1ccccc1N1CCOCC1` [Compound 28]: the IC50 at SIRT1 [2] is more than 150 µM.

Consider `COc1cc(C(=O)Nc2cc(CO)cc(-c3nc4ccncc4s3)c2)cc(OC)c1OC` [Compound 135], for which the EC50 is less than 5 µM at SIRT1 [1] and less than 50 µM in the test on NCI-H358 cells. In addition, on SIRT1 [1], the “FOLD ACT. MS” value was “B (B (Fold Activation <250%))”.

For `COc1cc(NC(=O)c2cccc(-c3nc4ncccc4o3)c2)cc(OC)c1OC` [Compound 102, 3-(oxazolo[4,5-b]pyridin-2-yl)-N-(3,4,5-trimethoxyphenyl)benzamide], on SIRT1 [1], the EC50 was in the range of 5 to 50 µM and the “FOLD ACT. MS” value was “A (A (Fold activation >250%))”. Besides, the EC50 with NCI-H358 cells was less than 50 µM.
